Biological target: T1, IL-17A (Homo sapiens, UniProt Q16552)
T1 sequence (Q16552 24-155): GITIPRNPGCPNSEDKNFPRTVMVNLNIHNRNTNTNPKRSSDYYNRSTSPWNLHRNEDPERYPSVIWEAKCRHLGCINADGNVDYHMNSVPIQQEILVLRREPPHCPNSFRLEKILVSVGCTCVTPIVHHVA
Assay: Inhibition of IL-17A induced IL-6 release from dermal fibroblast cell line (HDF cell line assay)
Assay type: cell-based
Settings: HDF cells stimulated with IL-17A 50 pM + TNFα 25 pM, IL-6 release by HTRF
From the text: Inhibition of IL-17A Induced IL-6 Release from Dermal Fibroblast Cell Line The purpose of this assay is to test the neutralising ability to IL-17 proteins, in a human primary cell system. Stimulation of normal human dermal fibroblasts (HDF) with IL-17 alone produces only a very weak signal but in combination with certain other cytokines, such as TNFα, a synergistic effect can be seen in the production of inflammatory cytokines, i.e. IL-6. HDFs were stimulated with IL-17A (50 pM) in combination with TNF-α (25 pM). The resultant IL-6 response was then measured using a homogenous time-resolved FRET kit from Cisbio. The kit utilises two monoclonal antibodies, one labelled with Eu-Cryptate (Donor) and the second with d2 or XL665 (Acceptor). The intensity of the signal is proportional to the concentration of IL-6 present in the sample (Ratio is calculated by 665/620×104). The ability of a compound to inhibit IL-17 induced IL-6 release from human dermal fibroblasts is measured in this assay. […] The cells were re-suspended in complete media (5 mL) counted and adjusted to a concentration of 3.125×10^4 cells/mL before being added to the 384 well assay plate (Corning #3701) at 40 μL per well. […] The mixture was incubated at room temperature for 3 h with gentle shaking (<400 rpm) before being read on a Synergy Neo 2 plate reader (Excitation: 330 nm; Emission: […]).

pIC50 (listed as 1 (Peak 1))	pIC50 (listed as 2 (Peak 2))	Structure (SMILES)
7.7	–	Cc1nonc1C(=O)N[C@H](c1cn2ncc(C3(C(=O)NCC(C)(F)F)CC(C)(O)C3)nc2n1)C1CCC(F)(F)CC1 (single isomer, unassigned) [Example 1]
–	8.4	Cc1nonc1C(=O)N[C@H](c1cn2ncc(C3(C(=O)NCC(C)(F)F)CC(C)(O)C3)nc2n1)C1CCC(F)(F)CC1 (single isomer, unassigned) [Example 2]

From patent US20260285867A1, “IMIDAZOTRIAZINE DERIVATIVES AS IL-17 MODULATORS” (UCB BIOPHARMA SRL, priority 2023, published 2026)
